Earlier results on two compounds are cited in patent US8791078B2, “Cell protection in dialysis patients by administration of a creatine compound” (Crearene Ltd., priority 2009, dated 2014).

In general, Km refers to the concentration of substrate that gives half-maximal velocity.

The test system of data set [1] is muscle cramps associated with haemodialysis. More on the design: dose or concentration left out as unconfirmed. Conditions: oral, before each dialysis session for 4 weeks.
Data set [2] concerns the target T1, creatine Transporter Protein (CrT) (Homo sapiens, UniProt P48029).
T1 sequence (P48029 1-635): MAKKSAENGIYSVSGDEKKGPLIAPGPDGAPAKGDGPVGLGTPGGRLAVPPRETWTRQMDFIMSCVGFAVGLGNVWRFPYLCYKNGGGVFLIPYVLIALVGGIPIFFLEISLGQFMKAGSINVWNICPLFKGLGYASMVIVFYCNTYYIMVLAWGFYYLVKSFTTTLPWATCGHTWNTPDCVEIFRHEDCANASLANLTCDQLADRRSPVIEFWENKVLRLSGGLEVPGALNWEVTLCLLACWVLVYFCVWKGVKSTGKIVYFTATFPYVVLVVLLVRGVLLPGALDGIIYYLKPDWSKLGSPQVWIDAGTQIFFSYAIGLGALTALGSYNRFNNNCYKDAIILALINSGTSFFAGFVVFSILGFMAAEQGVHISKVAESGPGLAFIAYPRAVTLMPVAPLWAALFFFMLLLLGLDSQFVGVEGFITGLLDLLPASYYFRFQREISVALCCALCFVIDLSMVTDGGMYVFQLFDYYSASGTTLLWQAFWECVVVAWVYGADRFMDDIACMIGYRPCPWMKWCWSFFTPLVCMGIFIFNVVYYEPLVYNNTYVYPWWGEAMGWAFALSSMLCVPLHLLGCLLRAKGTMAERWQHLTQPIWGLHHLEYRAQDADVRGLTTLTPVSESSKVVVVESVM
To be noted: CrT in the plasma membrane.

In data set [3] the test system is total plasma homocysteine. Conditions: chronic haemodialysis patients, oral creatine (2 giday).
Data set [4] relates to serum levels of homocysteine. To be noted: creatine supplementation.

Consider `CN(CC(=O)O)C(=N)N.O` [creatine monohydrate], for which the “effect on muscle cramps associated with haemodialysis” value in data set [1] is “alleviates muscle cramps associated with haemodialysis”.
Take `CN(CC(=O)O)C(=N)N` [creatine]: in data set [2], the Km was 25 to 30 µM. Also, in data set [3], the “effect on total plasma homocysteine” value is listed as “does not decrease total plasma homocysteine”. Besides, the “effect on serum levels of homocysteine” value in data set [4] is recorded as “reduce serum levels of homocysteine”.
